The source of these data is ChEMBL document CHEMBL1123972, “Drug-induced modifications of the immune response. 12. 4,5-Dihydro-4-oxo-2-(substituted amino)-3-furancarboxylic acids and derivatives as novel antiallergic agents” (1988).

Where a name gives a salt, the structure may show the parent alone.

What all share (type): functional
For test [1], the system named is Rattus norvegicus. The test is described as follows: Antiallergic activity evaluated as percent inhibition at intraperitoneal dose of 100 mg/kg in rats. The note with it: for inhibition in vivo at 100 mg/kg: Rattus norvegicus, ip.
Test [2] deals with Rattus norvegicus. Put plainly: Antiallergic activity of edema in the active anaphylaxis assay at a intraperitoneal dose of 100 mg/kg in rats. Further details: unit not given here.
In test [3] the test system is Rattus norvegicus. The test is described as follows: Inhibition of histamine -induced dermal vascular permeability in rats at a intraperitoneal dose of 100 mg/kg 1 hr prior to challenge. The following applies: ip.
Test [4] has as its system Rattus norvegicus. The test is described as follows: Inhibition of serotonin -induced dermal vascular permeability in rats at a intraperitoneal dose of 100 mg/kg 1 hr prior to challenge. The following applies: ip.
The test system of test [5] is Rattus norvegicus. The test is described as follows: Inhibition of bradykinin-induced dermal vascular permeability in rats at a intraperitoneal dose of 100 mg/kg 1 hr prior to challenge. The following applies: ip.
For test [6], the system named is Rattus norvegicus. Put plainly: Inhibition of serotonin -induced dermal vascular permeability in rats at a peroral dose of 100 mg/kg 1 hr prior to challenge. The note with it: route oral.
Test [7] relates to Rattus norvegicus. The test is described as follows: Inhibition of histamine -induced dermal vascular permeability in rats at a peroral dose of 100 mg/kg 1 hr prior to challenge. The note with it: route oral.
For test [8], the system named is Rattus norvegicus. Put plainly: Inhibition of bradykinin-induced dermal vascular permeability in rats at a peroral dose of 100 mg/kg 1 hr prior to challenge. The note with it: route oral.
The subject of test [9] is Rattus norvegicus. Put plainly: Antiallergic activity of edema in the active anaphylaxis assay at a peroral dose of 100 mg/kg in rats. The note with it: route oral.
Test [10] concerns Rattus norvegicus. Put plainly: Antiallergic activity evaluated as percent inhibition at peroral dose of 100 mg/kg in rats. The note with it: route oral.

On to `O=C([O-])C1=C(Nc2ccccc2)OCC1=O.[Na+]`, for which, in test [1], the Inhibition is given as 17%. Also, the Activity in test [2] came to 2.75.

Consider `CCOC(=O)C1=C(Nc2ccccc2)OC(C)C1=O` (stereo unspecified), for which the inhibition in vivo at 100 mg/kg was determined as 61% in [1], 40% in test [3], 37% in test [4] and 46% in test [5]. This compound had an Activity in [2] of 1.44.

As for `O=C1COC(Nc2ccccc2)=C1C(=O)Nc1ccccc1`, the inhibition in vivo at 100 mg/kg in test [1] stood at 46%. The Activity in test [2] stood at 2.45.

Regarding `CN1CCC(=C2c3ccccc3C=Cc3ccccc32)CC1` [CYPROHEPTADINE HYDROCHLORIDE], the inhibition in vivo at 100 mg/kg turned out to be 93% in test [3], 93% in [4] and 23% in test [5].

Regarding `O=C(O)C1=C(Nc2ccc(C(=O)O)cc2)OCC1=O`, the inhibition in vivo at 100 mg/kg in test [1] was found to be 52%; in test [3] it was 64%; in test [4], 63%; in [5] it was 64%. For the same compound, in test [2], the Activity is listed as 2.

In the case of `COc1ccc(NC(=O)C2=C(Nc3ccc(OC)cc3)OCC2=O)cc1`, the figures for the inhibition in vivo at 100 mg/kg in test [3], in [4] and in test [5] were 8%, 13% and 39%, respectively.

With `CCOC(=O)C1=C(NC)OCC1=O`, the values for the inhibition in vivo at 100 mg/kg in [3], in [4] and in [5] were 50%, 38% and 25%, respectively.

For the compound `CCOC(=O)C1=C(Nc2ccc(C(=O)OCC)cc2)OCC1=O`, the values for the inhibition in vivo at 100 mg/kg in [6], in test [7] and in test [8] were 18%, 21% and 21%, respectively.

With `CCOC(=O)C1=C(Nc2ccc(Cl)cc2)OCC1=O`, the inhibition in vivo at 100 mg/kg was determined as 6.6% in test [6], 3.3% in [7] and 9.5% in [8].

For the compound `O=C(O)C1=C(NC2CC2c2ccc(Cl)cc2)OCC1=O` (stereo unspecified), the inhibition in vivo at 100 mg/kg in test [1] came out at 6%; in test [3] it was 56%; in test [4], 54%; in test [5], 71%. This compound came in with an Activity in test [2] of 4.1.

As for `Cc1ccccc1NC(=O)C1=C(Nc2ccccc2C)OCC1=O`, the inhibition in vivo at 100 mg/kg stood at 0% in [3], 9% in test [4] and 7% in [5].

Consider `CC1(C)OC(Nc2ccccc2)=C(C(=O)O)C1=O`, for which the inhibition in vivo at 100 mg/kg in test [1] was 44%. The Activity in test [2] was 1.95.

As to `O=C(O)C1=C(Nc2ccccc2)OCC1=O`, the Inhibition in test [1] is listed as 81%. This compound showed an Activity in test [2] of 0.47.

In [9], `Cn1c(=O)c2nc[nH]c2n(C)c1=O.O` [THEOPHYLLINE] yielded an Activity of 3.75. Besides, 100 mg/kg produced 66% inhibition in vivo in test [10].

For the compound `CCOC(=O)C1=C(NC2CC2c2ccccc2)OCC1=O` (stereo unspecified), the figures for the inhibition in vivo at 100 mg/kg in test [6], in [7] and in test [8] were 57%, 35% and 59%, respectively.

In the case of `COc1ccccc1NC(=O)C1=C(Nc2ccccc2OC)OCC1=O`, the figures for the inhibition in vivo at 100 mg/kg in test [3], in [4] and in [5] were 1%, 18% and 39%, respectively.

Turning to `O=C1COC(Nc2ccc(Cl)cc2)=C1C(=O)Nc1ccc(Cl)cc1`, the inhibition in vivo at 100 mg/kg turned out to be 15% in test [3], 14% in [4] and 44% in test [5].

`CCOC(=O)C1=C(NC2CC2c2ccc(Cl)cc2)OCC1=O` (stereo unspecified): the values for the inhibition in vivo at 100 mg/kg in [3], in test [4] and in test [5] were 60%, 51% and 76%, respectively.

Compound `O=C(O)C1=C(Nc2cccc3ccccc23)OCC1=O` showed an inhibition in vivo at 100 mg/kg in test [1] of 64%. Moreover, in [2], the Activity was found to be 1.2.

In turn, `CC1OC(Nc2ccccc2)=C(C(=O)O)C1=O` (stereo unspecified) displayed an inhibition in vivo at 100 mg/kg in test [1] of 60%. In [2], the Activity amounted to 2.

Turning to `O=C(O)C1=C(Nc2cccc([N+](=O)[O-])c2)OCC1=O`, the inhibition in vivo at 100 mg/kg in [1] is 39%; in test [3], 16%; in [4], 18%; in test [5], 48%. This compound had an Activity in [2] of 7.29.

Consider `Cc1ccc(C2CC2NC2=C(C(=O)O)C(=O)CO2)cc1` (stereo unspecified), for which the inhibition in vivo at 100 mg/kg in test [1] stood at 45%; in test [3], 100%; in test [4], 100%; in [5], 100%. The compound further came in with an Activity in test [2] of 1.58.

For the compound `O=C(O)C1=C(Nc2cccc(C(F)(F)F)c2)OCC1=O`, the inhibition in vivo at 100 mg/kg in test [6] is 40%; in test [7] it was 26%; in [8], 54%; in test [1] it was 45%. Also, the Activity in test [2] was 3.35.

The compound `O=C([O-])C1=C(NC2CC2c2ccccc2)OCC1=O.[Na+]` (stereo unspecified) registered an inhibition in vivo at 100 mg/kg in [1] of 22%. The compound also returned an Activity in [2] of 3.72.

As for `O=C(O)C1=C(Nc2ccc(Br)cc2)OCC1=O`, the inhibition in vivo at 100 mg/kg was 39% in [6], 45% in test [7], 68% in [8] and 27% in [1]. For the same compound, the Activity in [2] came to 3.24.

As for `CCOC(=O)C1=C(Nc2ccccc2)OC(C)(C)C1=O`, in [1], testing at 100 mg/kg gave an inhibition in vivo of 16%. In test [2], this compound returned an Activity of 7.71.

Take `COc1ccccc1NC1=C(C(=O)O)C(=O)CO1`: the inhibition in vivo at 100 mg/kg in test [6] is 30%; in test [7], 27%; in test [8], 38%; in [1], 45%. The Activity in [2] stood at 3.45.

For `CCOC(=O)C1=C(Nc2cccc(C(F)(F)F)c2)OCC1=O`, the inhibition in vivo at 100 mg/kg in [6] was determined as 9.7%; in test [7], 4.1%; in test [8], 40%.

A word on the Inhibition: it is the change of the read-out against control, counted positive when it falls. A word on the inhibition in vivo: it is how much of the control response was suppressed.
